Test results taken from ChEMBL document CHEMBL1201862, “PubChem BioAssay data set” (2004).
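All cell lines were grown in 96-well plates and treated with compound for 48 hours. GI50 marks 50% less growth.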 The source made the active and inactive calls. Cut-off read from the data, not from the text of the source: active = GI50 up to about 1.1 µM and inactive = higher.

What was measured:
Assay in all cases: inhibition of tumour cell growth, NCI panel, 48 h
[1] = test system: DLD-1
[2] = test system: DMS-273
[3] = test system: HOP-18
[4] = test system: KM-20L2
[5] = test system: SNB-78
[6] = test system: XF498
[7] = test system: LXFL 529
[8] = test system: M19-MEL
[9] = test system: RXF 631

Row | Compound | GI50 [1] | GI50 [2] | GI50 [3] | GI50 [4] | GI50 [5] | GI50 [6] | GI50 [7] | GI50 [8] | GI50 [9]
1 | O=c1cc(O)ccn1C1C=C(CO)C(O)C1O (centres undefined) | > 625 µM (inactive) | > 625 µM (inactive) | > 625 µM (inactive) | > 625 µM (inactive) | > 625 µM (inactive) | < 0.0625 µM (active) |  |  | 
2 | Cc1c(/C=N/NC(=O)c2ccccc2O)c(=O)n(-c2ccccc2)n1C | > 100 µM (inactive) | 58.5 µM (inactive) | > 100 µM (inactive) | > 100 µM (inactive) | > 100 µM (inactive) | > 100 µM (inactive) | > 100 µM (inactive) | > 100 µM (inactive) | 
3 | CC(=O)C(/N=N\C1CCC(S(=O)(=O)NB2N=CS2)CC1)C(=O)Nc1ccccc1C (centres undefined) | 16.9 µM (inactive) | 20.6 µM (inactive) | 29.3 µM (inactive) | 15.9 µM (inactive) | 23.6 µM (inactive) | 16.9 µM (inactive) | 14.2 µM (inactive) | 17.6 µM (inactive) | 
4 | CC1(O)CCC2(C#N)CCC1C2O (centres undefined) | 34 µM (inactive) | 94.4 µM (inactive) | > 100 µM (inactive) | 62.2 µM (inactive) | > 100 µM (inactive) | > 100 µM (inactive) | > 100 µM (inactive) | > 100 µM (inactive) | > 100 µM (inactive)
5 | CCCCCNC(=O)c1c(O)[nH]c(=S)[nH]c1=O |  |  |  | > 100 µM (inactive) | > 100 µM (inactive) |  | > 100 µM (inactive) | > 100 µM (inactive) | > 100 µM (inactive)
6 | COc1cc[n+](C)cc1 | > 100 µM (inactive) | > 100 µM (inactive) | > 100 µM (inactive) | > 100 µM (inactive) | > 100 µM (inactive) | > 100 µM (inactive) |  | > 100 µM (inactive) | 
7 | COc1cc(-c2ccc(/N=N/c3c(S(=O)(=O)O)cc4cc(S(=O)(=O)O)cc(N)c4c3O)c(OC)c2)ccc1/N=N/c1c(S(=O)(=O)O)cc2cc(S(=O)(=O)O)cc(N)c2c1O | > 94 µM (inactive) | > 74.6 µM (inactive) |  | 35 µM (inactive) | 78.3 µM (inactive) | 6.89 µM (inactive) |  | > 100 µM (inactive) | 
